Source: US20240293464A1, “TISSUE REPAIR” (priority 2021, published 2024)

Key:
Format in all cases: in vivo, horse
[1] = system: tendon/ligament injuries; test: Single armed pilot trial in equine connective tissue injuries, lesion size by ultrasonography (Example 7)
Method: The time since injury of each horse was noted. […] Side effects and tolerability were also recorded.
14 horses with 15 injured limbs were enrolled in the study between March and May 2021. The injuries comprised 9 tendon and 6 ligament injuries, with 12 injuries on the left side of the horse and 3 on the right. The mean time since injury was ˜ 12 months. The tendon injuries comprised 2 acute injuries (<1 month old) and 7 chronic injuries, with a mean time since injury of 13.1 months, and a range of 9-20 months. The ligamentous injuries comprised 6 chronic injuries, with a mean time since injury of 14.3 months and a range of 4-30 months.
All statistical analysis was performed on SPSS v27. Missing values were handled by last observation carried forward. Descriptive statistics were used to describe baseline and follow-up values. The results were first tested for normality using the Shapiro-Wilk test. The results at weeks 3, 5 and 7 were then analysed compared to baseline using two-tailed paired Student's t-tests once normality was proven. One-tailed Pearson correlation test was performed to determine if outcomes was correlated with time since injury as we hypothesise that older, more established injuries may benefit less from our supplementation.

[2] = system: tendon/ligament lesions; test: Equine tendon/ligament lesions from original injury through treatment (Example 8); conditions: oral 160,000 IU once per day
Method: Side effects and tolerability were also recorded. The administration of vitamin A supplement, and the vitamin A supplement used, were the same as that of Example 7. 7 horses with 7 injured limbs were enrolled in the study between March and May 2021. The injuries comprised 3 tendon and 4 ligament injuries. The inclusion criteria were polo horses with diagnosed tendon/ligament injuries regardless of time since injury. The exclusion criteria were horses with acute connective tissue injuries. All statistical analysis was performed on SPSS v27. Missing values were handled by last observation carried forward. Descriptive statistics were used to describe baseline and follow-up values. The results were first tested for normality using the Shapiro-Wilk test. The results at weeks 3, 5 and 7 were then analysed compared to baseline using two-tailed paired Student's t-tests once normality was proven.

[3] = system: Tendon injury; test: Echogenicity ratio of tendon lesion or injured tendon to adjacent healthy tendon (Example 9)
Text: Structures composed of different tissue will have different echogenicities. The health of a tissue such as a tendon can be assessed by comparing the echogenicity of the tissue with that of a corresponding healthy tissue. Healthy tendons comprising native tissue and normal architecture are usually hyperechoic and appear white on the sonogram; they are capable of reflecting ultrasound that is cast over the tissue. An injured tendon comprising a lesion will appear as less hyperechoic, and more hypoechoic as tendon fibers are interrupted and defects are usually filled with fluid, blood, or fat. Severe lesions will be anechoic, and will display as completely dark on the sonogram. […] The echogenicity of a tendon lesion was assessed by comparing grey scale statistics of the tendon lesion with the values of healthy adjacent tendon tissue (FIG. 18(b)). Due to equine anatomy, there is always a directly adjacent healthy tendon to use as a control (ultrasonography is […] by depth of tissue). The statistics comprised determining the mean pixel intensity at a number of random points on the lesion and the healthy tendon, and calculating a mean value for the echogenicity of each tissue. A ratio of mean echnogenicity of the lesion and the healthy tissue was determined to assess the extent of damage/healing at the lesion. Vitamin A supplement used, its administration, and the subjects investigated, comprise those of Example 7.

[4] = system: connective tissue injuries (tendon/ligament lesions); test: Post-treatment maintenance dose, double-blind randomised placebo-controlled trial (Example 10)
Text: Maintenance dose of vitamin A palmitate (retinyl palmitate) in a vehicle, delivered in dry feed at 8,000 IU per kg feed dry matter.
The methodology and subjects of the investigation comprise those of Example 7.
The trial was a double-blind randomised controlled trial.

[5] = system: injured tendon/ligament; test: Effect of activity level on connective tissue improvement (Example 11); conditions: week 7, full-treatment doses
Method: The vitamin A supplement used, its administration, and the subjects of the investigation comprise those of Example 7. Improvement (as a % of baseline) of the injured tendon/ligament was performed at 7 weeks into the trial. All 14 horses were administered full-treatment doses of vitamin A supplement from week 0 to week 7 whilst being put to work. 7 horses were put on light/no work and 7 on full work. The allocation of each horse into one of the two groups was determined by the respective owner of the horse, who decided based on whether they could afford for the horse to be put on light work (and thus investigate the isolated effect of vitamin A supplement on lesion progression) or whether the horse was required to be put back to full work.

## CCCCCCCCCCCCCCCC(=O)OC/C=C(C)/C=C/C=C(C)/C=C/C1=C(C)CCCC1(C)C [vitamin A supplement, Vitamin A palmitate]
[1]; baseline, 15 injuries
  Mean lesion size: 41.44%
[1]; outlier at 20 months since injury, complete avulsion of the ligament
  Percentage improvement, baseline to week 7: −25%
[1]; two outlier subjects at 12 months since injury
  Percentage improvement, baseline to week 7: 100%
[1]; week 3, oral 160,000 IU once per day, p=0.169 vs baseline
  Mean lesion size: 35.87%
[1]; week 5, oral 160,000 IU once per day, p<0.001 vs baseline
  Mean lesion size: 28.37%
[1]; week 7, oral 160,000 IU once per day, p=0.006 vs baseline
  Mean lesion size: 31.73%
[2]; ligaments, outlier excluded (n=3)
  Change in ligament lesion size, baseline to week 7: reduction in the size of two of the three lesions
[2]; tendons n=3, chronic injuries, p=0.04
  Mean improvement in lesion size, baseline to week 7: 30.62%
[3]; baseline to week 7
  % increase of mean echogenicity ratio (lesion/healthy tendon): 32.7%
[3]; baseline, 1 = perfect regeneration of native tendon
  Mean echogenicity ratio of tendon lesion to adjacent healthy tendon: 0.52
[3]; week 0
  Mean echogenicity ratio of injured tendon (area of lesion excluded) to adjacent healthy tendon: 0.76
[3]; week 7, oral 160,000 IU once per day
  Mean echogenicity ratio of injured tendon (area of lesion excluded) to adjacent healthy tendon: 0.82
[3]; week 7, oral 160,000 IU once per day, 1 = perfect regeneration
  Mean echogenicity ratio of tendon lesion to adjacent healthy tendon: 0.69
[4]; maintenance dose 80,000 IU/day, compared with placebo group
  Change in lesion size from week 7 to week 14, intragroup: −24.5%
[4]; week 14, after 7 weeks of 80,000 IU/day following 7 weeks of full dose, 31.73% at week 7
  Mean lesion size of the maintenance dose group: ~20.00%
[4]; week 14, after 7 weeks of maintenance dose, FIG. 21
  Lesion health on ultrasonogram in one re-injured subject: the health of this particular lesion deteriorated
[5]; horses on full work (n=7)
  Improvement from baseline: 45.05%
[5]; horses on light or no work (n=7)
  Improvement from baseline: 30.35%
